In assay [1] the target is T1, α-glucosidase (Saccharomyces cerevisiae, UniProt P53341).
T1 construct: purchased Sigma Aldrich
Description: Binding affinity measurement by fluorescence quenching (Stern–Volmer). The conditions noted are these: for KSV: Stern–Volmer constant. How it is done:
180 µL of 50 mM phosphate buffer (pH 6.8) with 10 µL of 0.2 unit/mL α-glucosidase were added into the 96-well black immuno-plates then 10 µL different concentrations (2–32 µM) of inhibitor were added. Fluorescent emission spectra were recorded from 300 to 400 nm, emission slits adjusted to 2.0 nm, and the excitation was 250 nm, using spectrophotometer (SpectraMax M3). There was no significant emission from any ingredient in the assay system under given experimental conditions (i.e. emission from 300 to 400 nm). A level of affinity was expressed with KSV, which was analysed using the Stern–Volmer equation: (12) […]=1+KSV[Qf] where F0 and F are the fluorescence intensities in the absence and presence of a quencher. Qf is a concentration of compounds.

Assay [2] addresses T2, α-glucosidase (EC3.2.1.20) (Saccharomyces cerevisiae, UniProt P53341).
T2 construct: purchased Sigma Aldrich
Description: α-Glucosidase enzyme kinetics (Lineweaver–Burk, Dixon plots, secondary plots, Yang's method). On the set-up: Vmax: unit not given here. The conditions noted are these: for Kik/Kiv: Yang's method; for Kinetic mode: double reciprocal (Lineweaver–Burk) plots; for KIS: inhibitor binding with enzyme-substrate complex, secondary plots of intercepts. It is filed as biochemical. The procedure: Similarly, the enzyme kinetic modes were clarified using a different p-nitrophenyl-α-D-glucopyranoside substrate (0, 0.5, 1, and 2 mM) and inhibitors concentrations. Analysis of the data used to determine the individual parameters of curves was prepared in the nonlinear regression program Sigma Plot (SPCC Inc., Chicago, IL, USA). The kinetic parameters, Michaelis–Menten (Km) and maximum velocity (Vmax), were found using Lineweaver–Burk plots. The dissociation constants between inhibitor and enzyme (Ki) were found from Dixon plots. Two inhibition constants for inhibitor binding with either free or enzyme-substrate complex, KI or KIS, were calculated from secondary plots of the slopes of the straight lines or vertical intercept (1/ Vmaxapp ), respectively, verse the concentration of inhibitors by Equations (2)–(4). Kik and Kiv rate constants were calculated according to Equations (5) and (6) proposed by Yang et al.[20]: (2) 1/V=Km/Vmax(1 + [I]/KI)1/S + 1/Vmax (3) Slope =Km/KIVmax[I] +Km/Vmax (4) Intercept = 1/KISVmax[I] +[…] (5) Km=Km0× (1 + [I]/Kik) (6) Vm=Vm0× (1 + [I]/Kiv)

In assay [3] the target is T2, α-glucosidase (EC3.2.1.20). The experiment in a line: biochemical. How it is done:
The inhibitory activity of α-glucosidase (EC3.2.1.20) was carried out with a few changes from literature reported method, using p-nitrophenyl-α-D-glucopyranoside at optimal pH of 6.8 (50 mM phosphate buffer)[3]. Inhibitors were dissolved and diluted to a needed concentration in DMSO. […] The absorbance of formed p-nitrophenol immediately measured with a wavelength of 405 nm at 37 °C. […] Calculation of the % of inhibition was as follows: (1) Activity (%)=100[1+([I]/IC50)]

The target in assay [4] is T2, α-glucosidase (EC3.2.1.20). The experiment in a line: α-Glucosidase enzyme kinetics (Lineweaver–Burk, Dixon plots, secondary plots, Yang's method). It is filed as biochemical. The conditions noted are these: enzyme activity vs. enzyme concentration at different inhibitor concentrations.
In assay [5] the target is T1, α-glucosidase. Description: Progress curves and time-dependent (slow-binding) assay. It is filed as biochemical. How it is done: Time-dependent assays of inhibitors at the different preincubation time (0, 15, 30, 45, 60 and 80 min) were accomplished using 0.05 unit/mL final concentration of α-glucosidase and p-nitrophenyl-α-D-glucopyranoside substrate (1 mM) in 50 mM phosphate buffer (pH 6.8) at 37 °C[21]. The progress curves were monitored every 30 s for 30 min. Furthermore, to clearly understand the time-dependent inhibition mode of α-glucosidase, inhibitors were assayed using different concentrations. Accordingly, the progress curves were calculated using Equations (7)–(11). Analysis of the data was prepared by the nonlinear regression program Sigma Plot (SPCC Inc., Chicago, IL, USA): (7) [P]t/[E]= vst+ vi−vs/kobs(1−e^−kobst) where [P]t is the concentration of product formed and [E] is the total enzyme concentration. (8) v/v0= exp (−kobst) (9) Enz+I⇄k4k3Enz−I (10) kobs=k4(1+[I]/Kiapp) (11) Kiapp=k4/k3

The mark [6] stands for this setting: fluorescence quenching, read-out: KA (converted).
Where [7] appears, read: p-NPG substrate, 50 mM phosphate buffer pH 6.8, 37 °C, read-out: IC50.
The mark [8] stands for this setting: from Dixon plots, read-out: Ki (inhibition constant).
Where [9] appears, read: slow-binding fit, Equations (10) and (11).

“Also recorded” adds a separate entry of the source. Like-named read-outs stand apart in the source and are kept apart here.

T2 sequence (P53341 whole entry): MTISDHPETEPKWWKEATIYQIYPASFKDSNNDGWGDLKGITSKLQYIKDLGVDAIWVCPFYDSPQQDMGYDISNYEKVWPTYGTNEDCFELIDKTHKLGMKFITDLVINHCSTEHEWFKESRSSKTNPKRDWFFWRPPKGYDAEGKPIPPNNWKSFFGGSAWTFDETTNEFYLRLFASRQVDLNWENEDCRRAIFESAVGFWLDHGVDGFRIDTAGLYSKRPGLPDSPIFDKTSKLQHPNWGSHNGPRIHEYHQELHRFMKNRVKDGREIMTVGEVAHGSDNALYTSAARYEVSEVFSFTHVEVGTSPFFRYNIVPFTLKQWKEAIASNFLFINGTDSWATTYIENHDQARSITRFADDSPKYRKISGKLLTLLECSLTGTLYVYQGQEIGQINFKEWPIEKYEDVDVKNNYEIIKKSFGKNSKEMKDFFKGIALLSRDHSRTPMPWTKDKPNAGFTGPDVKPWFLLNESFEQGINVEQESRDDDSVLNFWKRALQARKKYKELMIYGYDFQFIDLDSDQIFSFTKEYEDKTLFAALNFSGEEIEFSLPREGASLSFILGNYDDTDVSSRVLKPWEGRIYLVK
T1 sequence (P53341 whole entry): as above

Regarding `CC(C)=CCCC1(C)C=Cc2c(cc(O)c3c(=O)c(CC=C(C)C)c(-c4cc(O)c(O)cc4O)oc23)O1` (single isomer, unassigned; (-)) [Compound 5, (-)-2-(2,4,5-trihydroxyphenyl)-3-(3-methyl-2-buten-1-yl)-5-hydroxy-8-methyl-8-(4-methyl-3-penten-1-yl)-4H,8H-benzo[1,2-b:3,4-b']dipyran-4-one], the KSV in assay [1] (pH 6.8, 37 °C) is recorded as 1.63 ×10^5 L·mol^–1. The Kd in assay [1] (setting [6]) is 1.23 µM. Moreover, the results for the Vmax in assay [2] ([I] 7.5 μM), in assay [2] ([I] 15.0 μM) and in assay [2] ([I] 30.0 μM) were 4.74, 3.67 and 2.79, respectively. Besides, the Kik/Kiv in assay [2] ([I] 7.5 μM) turned out to be 3.79; in assay [2] ([I] 15.0 μM) it was 3.18; in assay [2] ([I] 30.0 μM), 3.25. Further, the Kinetic mode entry in assay [2] was “Mixed type I”. The KIS in assay [2] was 20.4 µM. The Ki in assay [2] (inhibitor binding with free enzyme, secondary plots of slopes, read-out: KI) is 5.4 µM. For the same molecule, the IC50 (usually the concentration needed to halve the response being measured) in assay [3] (setting [7]) was determined as 8.8 ± 0.3 µM.
`C=C(C)C1Cc2c(oc3cc(OC)cc(O)c3c2=O)-c2c(O)cc(O)c(O)c21` (centres unmarked) [Compound 1, 1,3,4,8-tetrahydroxy-10-methoxy-5-(prop-1-en-2-yl)-5,6-dihydro-benzo[c]xanthen-7-one]: in assay [4], the Reversibility of inhibition entry is listed as “reversible inhibitor”. For the same molecule, the KSV in assay [1] is 1.84 × 10^5 Lmol^−1; in assay [1] (pH 6.8, 37 °C), 1.84 ×10^5 L·mol^–1. Besides, in assay [1] (setting [6]), the Kd is 1.27 µM. Besides, the Vmax is on record as 6.30 in assay [2] ([I] 4.0 μM), 6.50 in assay [2] ([I] 8.0 μM) and 7.55 in assay [2] ([I] 16.0 μM). Besides, the Kik/Kiv was determined as 55.80 in assay [2] ([I] 4.0 μM), 48.88 in assay [2] ([I] 8.0 μM) and 29.79 in assay [2] ([I] 16.0 μM). For the same molecule, the Kinetic mode result in assay [2] is “Competitive”. The Ki is 2.9 µM in assay [2] (setting [8]) and 0.38 µM in assay [5] (slow-binding fit, Kiapp = k4/k3). Also, the IC50 in assay [3] (setting [7]) was determined as 7.6 ± 0.2 µM. Further, the Time-dependent inhibition mode result in assay [5] (preincubation time dependence, kobs vs [I]) was “competitive and reversible simple slow-binding; also recorded: slow-binding inhibitor”. The k3 in assay [5] (setting [9]) came to 728 M⁻¹ s⁻¹. For the same molecule, the k4 in assay [5] (setting [9]) is 0.0166 min⁻¹.
`C=C(C)[C@H]1Cc2c(oc3c4c(cc(O)c3c2=O)OC(C)(C)C=C4)-c2c(O)cc(O)c(O)c21` [Compound 2, artobiloxanthone]: the KSV in assay [1] (pH 6.8, 37 °C) is 1.53 ×10^5 L·mol^–1. Also, in assay [1] (setting [6]), the Kd is 1.32 µM. Also, the results for the Vmax in assay [2] ([I] 7.5 μM), in assay [2] ([I] 15.0 μM) and in assay [2] ([I] 30.0 μM) were 9.7056, 9.6712 and 9.8012, respectively. Moreover, the Kik/Kiv was 76.6587 in assay [2] ([I] 7.5 μM), 102.4604 in assay [2] ([I] 15.0 μM) and 209.3396 in assay [2] ([I] 30.0 μM). Further, the Kinetic mode entry in assay [2] is reported as “Competitive”. Moreover, the Ki in assay [2] (setting [8]) is 5.1 µM. Besides, in assay [3] (setting [7]), the IC50 amounted to 8.6 ± 0.5 µM.
As for `CC1(C)Oc2c(O)cc(O)c3c2C1Cc1c-3oc2cc(O)cc(O)c2c1=O` (centres unmarked) [Compound 3, artoindonesianin P], the KSV is 0.51 × 10^5 Lmol^−1 in assay [1] and 0.51 ×10^5 L·mol^–1 in assay [1] (pH 6.8, 37 °C). For the same molecule, the Kd in assay [1] (setting [6]) is 1.75 µM. Moreover, the values for the Vmax in assay [2] ([I] 17.5 μM), in assay [2] ([I] 35 μM) and in assay [2] ([I] 70 μM) were 6.6800, 6.7889 and 6.7204, respectively. For the same molecule, the Kik/Kiv stood at 23.8593 in assay [2] ([I] 17.5 μM), 31.6240 in assay [2] ([I] 35 μM) and 75.7804 in assay [2] ([I] 70 μM). Moreover, the Kinetic mode entry in assay [2] was “Competitive”. In assay [2] (setting [8]), the Ki worked out at 12.6 µM. The half-maximal inhibitory concentration (IC50) in assay [3] (setting [7]) was found to be 25.4 ± 0.7 µM.
On to `CC1(C)C=Cc2c(cc(O)c3c(=O)c4c(oc23)-c2c(O)cc(O)c3c2C(C4)C(C)(C)O3)O1` (centres unmarked) [Compound 4, cycloartobiloxanthone], for which, in assay [1] (pH 6.8, 37 °C), the KSV was 1.29 ×10^5 L·mol^–1. Further, the Kd in assay [1] (setting [6]) is 1.27 µM. The Vmax in assay [2] ([I] 7.5 μM) is on record as 6.3816; in assay [2] ([I] 15.0 μM), 7.3692; in assay [2] ([I] 30.0 μM), 7.4627. The Kik/Kiv in assay [2] ([I] 7.5 μM) was determined as 16.6987; in assay [2] ([I] 15.0 μM), 11.4837; in assay [2] ([I] 30.0 μM), 20.2662. Moreover, the Kinetic mode result in assay [2] was “Competitive”. Besides, the Ki in assay [2] (setting [8]) worked out at 5.8 µM. Also, the IC50 in assay [3] (setting [7]) was 9.6 ± 0.6 µM.
`CC(C)=CCc1c(-c2cc(O)c(O)cc2O)oc2c3c(cc(O)c2c1=O)OC(C)(C)C=C3` [Compound 6, artonin E] showed a Kd in assay [1] of 1.28 µM. For the same molecule, the KSV in assay [1] is 0.93 × 10^5 Lmol^−1; in assay [1] (pH 6.8, 37 °C), 0.93 ×10^5 L·mol^–1. Further, the Ki was determined as 15.4 µM in assay [2] (KI, inhibitor binding with free enzyme, secondary plots of slopes) and 15.8 µM in assay [2] (Ki (inhibition constant), from Dixon plots). In addition, the figures for the Vmax in assay [2] ([I] 7.5 μM), in assay [2] ([I] 15.0 μM) and in assay [2] ([I] 30.0 μM) were 5.0352, 4.2992 and 3.6219, respectively. In addition, the Kik/Kiv in assay [2] ([I] 7.5 μM) is 3.7049; in assay [2] ([I] 15.0 μM), 2.5098; in assay [2] ([I] 30.0 μM), 1.8101. In assay [2], the Kinetic mode entry is “Mixed type I”. For the same molecule, the KIS in assay [2] was 51.7 µM. Besides, the IC50 in assay [3] was determined as 16.2 ± 0.8 µM.

These data come from publication PMC6735331, “Competitive α-glucosidase inhibitors, dihydrobenzoxanthones, from the barks of Artocarpus elasticus” (Journal of Enzyme Inhibition and Medicinal Chemistry, 2019).
